Assay results published in patent publication US7335359B2, “Glycosylated specificity exchangers” (Tripep AB, priority 2003, dated 2008).

Tested on: human Gal-alpha1,3-Gal-specific antibodies
Test: Glycosylated peptide competitive assay on Gal-BSA coated plates with human sera IB72 (FIG. 4)
Type: binding
Settings: positive control, mixed with human sera IB72
Description: To further evaluate the ability of the glycosylated specificity exchangers to bind to a pathogen, a glycosylated peptide competitive assay was performed using the most reactive human sera (IB72). In brief, Gal-alpha1,3-Gal-labeled bovine serum albumin (Gal-BSA) was coated onto 96-well microplates in sodium carbonate buffer (pH: 9.6) at +4° C. overnight. Dilutions of human sera and dilutions of glyco-peptides (glycosylated HIV-specific ligand/receptor specificity exchangers or Gal-BSA) or non-glycosylated peptides (HIV-specific ligand/receptor specificity exchangers or BSA) were preincubated in phosphate-buffered saline (PBS) containing 1% bovine albumin, 2% goat serum and 0.05% Tween 20 at 37° C. for 1 h. The mixture was then added to the coated plates and incubated at 37° C. for 1 h, then washed 3 times with phosphate-buffered saline (PBS) containing 0.05% Tween 20 (pH: 7.4).
Bound antibodies were indicated with goat anti-human polyvalent Ig, conjugated with alkaline phosphatase. The plates were incubated and washed as described above. Plates were developed with phosphatase substrate at room temperature for 30 min, stopped with 1 M NaOH. Optical density (OD) at 405 nm/650 nm was determined to quantify the inhibition. […] Thus, specificity exchangers that bind Gal-alpha1,3-Gal-specific antibodies had been generated. […]

Gal-alpha1,3-Gal-labeled bovine serum albumin [Gal-BSA]
inhibition of human antibody binding to Gal-BSA: 100%
